Activity calls are given as the source filed them. No rule for the calls is given here.
Test system: CCRIS mutagenicity, Ames/micronucleus/aberration tests
Assay: CCRIS mutagenicity studies
[1] = Test System: AMES SALMONELLA TYPHIMURIUM, Strain/Indicator: TA98, Metabolic Activation: HAMSTER, LIVER, S-9, AROCLOR 1254 (10%), Method: PREINCUBATION
[2] = Test System: AMES SALMONELLA TYPHIMURIUM, Strain/Indicator: TA98, Metabolic Activation: NONE, Method: PREINCUBATION
[3] = Test System: AMES SALMONELLA TYPHIMURIUM, Strain/Indicator: TA98, Metabolic Activation: RAT, LIVER, S-9, AROCLOR 1254 (10%), Method: PREINCUBATION
[4] = Test System: AMES SALMONELLA TYPHIMURIUM, Strain/Indicator: TA100, Metabolic Activation: HAMSTER, LIVER, S-9, AROCLOR 1254 (10%), Method: PREINCUBATION
[5] = Test System: AMES SALMONELLA TYPHIMURIUM, Strain/Indicator: TA100, Metabolic Activation: NONE, Method: PREINCUBATION
[6] = Test System: AMES SALMONELLA TYPHIMURIUM, Strain/Indicator: TA100, Metabolic Activation: RAT, LIVER, S-9, AROCLOR 1254 (10%), Method: PREINCUBATION
[7] = Test System: AMES SALMONELLA TYPHIMURIUM, Strain/Indicator: TA102, Metabolic Activation: NONE, Method: PREINCUBATION
[8] = Test System: AMES SALMONELLA TYPHIMURIUM, Strain/Indicator: TA1535, Metabolic Activation: HAMSTER, LIVER, S-9, AROCLOR 1254 (10%), Method: PREINCUBATION
[9] = Test System: AMES SALMONELLA TYPHIMURIUM, Strain/Indicator: TA1535, Metabolic Activation: NONE, Method: PREINCUBATION
[10] = Test System: AMES SALMONELLA TYPHIMURIUM, Strain/Indicator: TA1535, Metabolic Activation: RAT, LIVER, S-9, AROCLOR 1254 (10%), Method: PREINCUBATION
[11] = Test System: AMES SALMONELLA TYPHIMURIUM, Strain/Indicator: TA1537, Metabolic Activation: HAMSTER, LIVER, S-9, AROCLOR 1254 (10%), Method: PREINCUBATION
[12] = Test System: AMES SALMONELLA TYPHIMURIUM, Strain/Indicator: TA1537, Metabolic Activation: NONE, Method: PREINCUBATION
[13] = Test System: AMES SALMONELLA TYPHIMURIUM, Strain/Indicator: TA1537, Metabolic Activation: RAT, LIVER, S-9, AROCLOR 1254 (10%), Method: PREINCUBATION
[14] = Test System: AMES SALMONELLA TYPHIMURIUM, Strain/Indicator: TA1538, Metabolic Activation: NONE, Method: PREINCUBATION
[15] = Test System: AMES SALMONELLA TYPHIMURIUM, Strain/Indicator: TA98, Metabolic Activation: NONE, Method: STANDARD PLATE

Compound | mutagenic call [1] | mutagenic call [2] | mutagenic call [3] | mutagenic call [4] | mutagenic call [5] | mutagenic call [6] | mutagenic call [7] | mutagenic call [8] | mutagenic call [9] | mutagenic call [10] | mutagenic call [11] | mutagenic call [12] | mutagenic call [13] | mutagenic call [14] | mutagenic call [15] | other results
O=C1C=C(O)c2ccccc2C1=O | inactive; negative | inactive; negative | inactive; negative | inactive; negative | inactive; negative | inactive; negative | inactive; negative | inactive; negative | inactive; negative | inactive; negative | inactive; negative | inactive; negative | active; positive | inactive; negative |  | mutagenic call (Test System: AMES SALMONELLA TYPHIMURIUM, Strain/Indicator: TA98, Metabolic Activation: RAT, LIVER, S-9, PHENOBARBITAL AND 5,6-BENZOFLAVONE, Method: PREINCUBATION): inactive; negative; mutagenic call (Test System: AMES SALMONELLA TYPHIMURIUM, Strain/Indicator: TA100, Metabolic Activation: RAT, LIVER, S-9, PHENOBARBITAL AND 5,6-BENZOFLAVONE, Method: PREINCUBATION): inactive; negative; mutagenic call (Test System: AMES SALMONELLA TYPHIMURIUM, Strain/Indicator: TA102, Metabolic Activation: RAT, LIVER, S-9, PHENOBARBITAL AND 5,6-BENZOFLAVONE, Method: PREINCUBATION): inactive; negative; mutagenic call (Test System: AMES SALMONELLA TYPHIMURIUM, Strain/Indicator: TA104, Metabolic Activation: NONE, Method: PREINCUBATION): inactive; negative; mutagenic call (Test System: AMES SALMONELLA TYPHIMURIUM, Strain/Indicator: TA104, Metabolic Activation: RAT, LIVER, S-9, PHENOBARBITAL AND 5,6-BENZOFLAVONE, Method: PREINCUBATION): inactive; negative; mutagenic call (Test System: AMES SALMONELLA TYPHIMURIUM, Strain/Indicator: TA1535, Metabolic Activation: RAT, LIVER, S-9, PHENOBARBITAL AND 5,6-BENZOFLAVONE, Method: PREINCUBATION): inactive; negative; mutagenic call (Test System: AMES SALMONELLA TYPHIMURIUM, Strain/Indicator: TA1537, Metabolic Activation: RAT, LIVER, S-9, PHENOBARBITAL AND 5,6-BENZOFLAVONE, Method: PREINCUBATION): inactive; negative; mutagenic call (Test System: AMES SALMONELLA TYPHIMURIUM, Strain/Indicator: TA1538, Metabolic Activation: RAT, LIVER, S-9, PHENOBARBITAL AND 5,6-BENZOFLAVONE, Method: PREINCUBATION): inactive; negative; mutagenic call (Test System: AMES SALMONELLA TYPHIMURIUM, Strain/Indicator: TA2637, Metabolic Activation: NONE, Method: PREINCUBATION): inactive; negative; mutagenic call (Test System: AMES SALMONELLA TYPHIMURIUM, Strain/Indicator: TA2637, Metabolic Activation: RAT, LIVER, S-9, PHENOBARBITAL AND 5,6-BENZOFLAVONE, Method: PREINCUBATION): inactive; negative
CC(=O)OCc1cocc2c(C=O)ccc1-2 |  |  |  |  |  |  |  |  |  |  |  |  |  |  | active; positive | mutagenic call (Test System: AMES SALMONELLA TYPHIMURIUM, Strain/Indicator: TA98, Metabolic Activation: RAT, LIVER, S-9, AROCLOR 1254, Method: STANDARD PLATE): active; positive; mutagenic call (Test System: AMES SALMONELLA TYPHIMURIUM, Strain/Indicator: TA100, Metabolic Activation: NONE, Method: STANDARD PLATE): active; positive; mutagenic call (Test System: AMES SALMONELLA TYPHIMURIUM, Strain/Indicator: TA100, Metabolic Activation: RAT, LIVER, S-9, AROCLOR 1254, Method: STANDARD PLATE): active; positive; mutagenic call (Test System: AMES SALMONELLA TYPHIMURIUM, Strain/Indicator: TA1535, Metabolic Activation: NONE, Method: STANDARD PLATE): inactive; negative; mutagenic call (Test System: AMES SALMONELLA TYPHIMURIUM, Strain/Indicator: TA1535, Metabolic Activation: RAT, LIVER, S-9, AROCLOR 1254, Method: STANDARD PLATE): inactive; negative; mutagenic call (Test System: AMES SALMONELLA TYPHIMURIUM, Strain/Indicator: TA1537, Metabolic Activation: NONE, Method: STANDARD PLATE): inactive; negative; mutagenic call (Test System: AMES SALMONELLA TYPHIMURIUM, Strain/Indicator: TA1537, Metabolic Activation: RAT, LIVER, S-9, AROCLOR 1254, Method: STANDARD PLATE): inactive; negative
Cn1c(N=[N+]=[N-])nc2c3ccccc3ccc21 |  |  |  |  |  |  |  |  |  |  |  |  |  |  | active; positive | mutagenic call (Test System: AMES SALMONELLA TYPHIMURIUM, Strain/Indicator: TA98(1,8-DNP6), Metabolic Activation: NONE, Method: STANDARD PLATE): active; positive
CCOC(=O)CC(C)=O |  | inactive; negative |  |  | inactive; negative |  | inactive; negative |  | inactive; negative |  |  | inactive; negative |  | inactive; negative |  | mutagenic call (Test System: AMES SALMONELLA TYPHIMURIUM, Strain/Indicator: TA97, Metabolic Activation: NONE, Method: PREINCUBATION): inactive; negative; mutagenic call (Test System: AMES SALMONELLA TYPHIMURIUM, Strain/Indicator: TA97, Metabolic Activation: RAT, LIVER, S-9, AROCLOR 1254, Method: PREINCUBATION): inactive; negative; mutagenic call (Test System: AMES SALMONELLA TYPHIMURIUM, Strain/Indicator: TA98, Metabolic Activation: RAT LIVER S-9, PHENOBARBITAL AND BETA-NAPHTHOFLAVONE, Method: PREINCUBATION): inactive; negative; mutagenic call (Test System: AMES SALMONELLA TYPHIMURIUM, Strain/Indicator: TA100, Metabolic Activation: RAT LIVER S-9, PHENOBARBITAL AND BETA-NAPHTHOFLAVONE, Method: PREINCUBATION): inactive; negative; mutagenic call (Test System: AMES SALMONELLA TYPHIMURIUM, Strain/Indicator: TA102, Metabolic Activation: RAT, LIVER, S-9, AROCLOR 1254, Method: PREINCUBATION): inactive; negative; mutagenic call (Test System: AMES SALMONELLA TYPHIMURIUM, Strain/Indicator: TA1535, Metabolic Activation: RAT LIVER S-9, PHENOBARBITAL AND BETA-NAPHTHOFLAVONE, Method: PREINCUBATION): inactive; negative; mutagenic call (Test System: AMES SALMONELLA TYPHIMURIUM, Strain/Indicator: TA1537, Metabolic Activation: RAT LIVER S-9, PHENOBARBITAL AND BETA-NAPHTHOFLAVONE, Method: PREINCUBATION): inactive; negative; mutagenic call (Test System: AMES SALMONELLA TYPHIMURIUM, Strain/Indicator: TA1538, Metabolic Activation: RAT LIVER S-9, PHENOBARBITAL AND BETA-NAPHTHOFLAVONE, Method: PREINCUBATION): inactive; negative; mutagenic call (Test System: E.COLI, Strain/Indicator: WP2UVRA, Metabolic Activation: NONE, Method: PREINCUBATION): inactive; negative; mutagenic call (Test System: E.COLI, Strain/Indicator: WP2UVRA, Metabolic Activation: RAT LIVER S-9, PHENOBARBITAL AND BETA-NAPHTHOFLAVONE, Method: PREINCUBATION): inactive; negative
C=C(C)C(=O)OCCCCCCCCCC | inactive; negative | inactive; negative | inactive; negative | inactive; negative | inactive; negative | inactive; negative |  | inactive; negative | inactive; negative | inactive; negative | inactive; negative | inactive; negative | inactive; negative |  |  | 

— PubChem BioAssay AID1259407 (Chemical Carcinogenesis Research Information System (CCRIS), 2018)
